Paper doi:10.1101/743898v3 (biorxiv, 2019)
Changes are numbered by the printed parent chain.

What was measured:
[1] = target: T1, ZmHK1 (tobacco membrane; fused to GFP) (Zea mays, UniProt Q9FRY7); experiment: cytokinin binding assay, tobacco microsomal membranes
T1 sequence (Q9FRY7 1-974): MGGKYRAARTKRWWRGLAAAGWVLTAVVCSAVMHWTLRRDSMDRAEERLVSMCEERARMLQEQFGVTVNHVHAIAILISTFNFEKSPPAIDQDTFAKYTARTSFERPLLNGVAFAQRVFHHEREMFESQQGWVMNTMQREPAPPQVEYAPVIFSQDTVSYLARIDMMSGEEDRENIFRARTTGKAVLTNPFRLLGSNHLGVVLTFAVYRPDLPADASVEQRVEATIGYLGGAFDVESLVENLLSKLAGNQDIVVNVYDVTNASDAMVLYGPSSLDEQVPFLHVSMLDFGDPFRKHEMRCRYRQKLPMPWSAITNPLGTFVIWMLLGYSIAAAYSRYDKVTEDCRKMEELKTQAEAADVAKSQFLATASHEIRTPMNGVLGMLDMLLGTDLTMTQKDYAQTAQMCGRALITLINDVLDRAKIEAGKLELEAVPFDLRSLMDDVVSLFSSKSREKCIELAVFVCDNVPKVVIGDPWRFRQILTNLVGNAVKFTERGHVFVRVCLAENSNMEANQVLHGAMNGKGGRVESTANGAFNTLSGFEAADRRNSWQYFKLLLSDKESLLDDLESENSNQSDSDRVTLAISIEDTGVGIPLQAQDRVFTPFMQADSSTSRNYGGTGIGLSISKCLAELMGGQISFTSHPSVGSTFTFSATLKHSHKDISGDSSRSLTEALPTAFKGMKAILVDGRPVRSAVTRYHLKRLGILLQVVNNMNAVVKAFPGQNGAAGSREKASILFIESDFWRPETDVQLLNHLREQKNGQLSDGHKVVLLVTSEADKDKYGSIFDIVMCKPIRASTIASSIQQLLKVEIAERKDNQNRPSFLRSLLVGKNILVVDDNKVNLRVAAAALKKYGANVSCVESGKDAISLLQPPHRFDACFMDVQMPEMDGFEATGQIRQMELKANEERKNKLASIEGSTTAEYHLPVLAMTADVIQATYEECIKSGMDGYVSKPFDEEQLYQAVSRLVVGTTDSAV

[2] = target: T2, ZmHK1 (tobacco membrane; fused to GFP) (Zea mays, UniProt Q9FRY7, P190L); experiment: as above
T2 sequence (Q9FRY7 1-974 P190L): T1 sequence (Q9FRY7 1-974) with P190L

| Structure (SMILES) | Kd [1] | Kd [2] |
| --- | --- | --- |
| c1ccc(CNc2ncnc3nc[nH]c23)cc1 [BA] | 1.42 nM | – |
| Nc1ncnc2nc[nH]c12 [Ade] | > 10000 nM | – |
| CC(C)=CCNc1ncnc2nc[nH]c12 [iP] | – | 0.23 nM |
| O=C(Nc1ccccc1)Nc1cnns1 [TD] | 49.2 nM | – |
| C[C@H](CO)CCNc1ncnc2nc[nH]c12 [DZ] | 114 nM | – |
